# From patent publication US20150118165A1, “USE OF CYCLOHEXANOL ETHERS HAVING ANTIMICROBIAL PROPERTIES” (Merck Patent GmbH, priority 2012, published 2015)
# Columns and labels:
# [1] = test system: Candida albicans; assay: Antimicrobial action, microbe count (procedure as Example 1); assay type: cell-based; conditions: for Δlog: t24 h vs t0
# Experimental: (§1) For sample preparation, the substance I-2 being investigated is homogeneously dispersed in an amount of 1.0% in a water/ethanol mixture (12% of ethanol) (=sample). A suspension of Staphylococcus epidermidis (ATCC 12228) having an optical density of 1.0 in CASO broth (Merck 1.05459) is diluted 1:10000 with CASO broth. 500 μl of sample are added to 500 μl of microorganism suspension, and the mixture is incubated at 35° C. for 24 h or 48 h. After the incubation, the test batches are diluted to −6 in 10 unit steps, and 0.1 ml of each is plated-out on CASO agar (Merck 1.05458) and incubated at 35° C. for 24 h.
# (§2) In order to determine the initial microbe count, 0.1 ml of the bacteria suspension used are plated-out on CASO agar (Merck 1.05458) and incubated at 35° C. for 24 h.
# (§3) The colonies are subsequently counted, and the microbe count per ml is determined compared with the negative control (12% of ethanol in water).
# (§4) Procedure in Accordance with Example 1
# (§5) The concentrations indicated are the final use concentrations. In order to prepare the stock solution, double the final concentration are prepared in the solvent indicated. This is subsequently diluted 1:2 with the corresponding microbe suspension. In the case of Aspergillus brasiliensis, the microbe count determination is exceptionally carried out after 48 h, in the case of Malassezia furfur after 72 h.
# [2] = test system: Corynebacterium xerosis; assay: as above; assay type: cell-based; conditions: 0.5% in H2O
# Experimental: as §1, §2, §3, §4, §5
# [3] = test system: Propionibacterium acnes; assay: as above; assay type: cell-based; conditions: for Δlog: t24 h vs t0
# Experimental: as §1, §2, §3, §4, §5
# [4] = test system: Salmonella enterica; assay: as above; assay type: cell-based; conditions: for Δlog: t24 h vs t0
# Experimental: as §1, §2, §3, §4, §5
# [5] = test system: Serratia marcescens; assay: as above; assay type: cell-based; conditions: for Δlog: t24 h vs t0
# Experimental: as §1, §2, §3, §4, §5
# [6] = test system: Staphylococcus aureus; assay: as above; assay type: cell-based; conditions: 1.0% in H2O(12% of ethanol)
# Experimental: as §1, §2, §3, §4, §5
# [7] = test system: Echerichia coli; assay: as above; assay type: cell-based, Escherichia coli; conditions: for Δlog: t24 h vs t0
# Experimental: as §1, §2, §3, §4, §5
# [8] = test system: Aspergillus brasiliensis; assay: Antimicrobial action, microbe count (procedure as Example 1, count after 48 h); assay type: cell-based; conditions: for Δlog: count after 48 h vs t0; for Microbe count t24 h: count after 48 h
# Experimental: as §1, §2, §3, §4, §5
# [9] = test system: Malassezia furfur; assay: Antimicrobial action, microbe count (procedure as Example 1, count after 72 h); assay type: cell-based; conditions: 1.0% in H2O
# Experimental: as §1, §2, §3, §4, §5
# [10] = Measurement of density and viscosities (Ubbelohde viscometer) to estimate spreadability; assay type: physicochemical
# Experimental: After measurement of the densities and kinematic viscosities using an Ubbelohde viscometer, the following dynamic viscosities arise:
# Kinematic viscosity of I-1: 15.2 mm^2/s Density of I-1: 0.9897 g/cm^3; 25° C.
# Dynamic viscosity of I-1=kinematic viscosity of I-1×density I-1=15.0 [mPas]
# Since spreadabilities and viscosities of cosmetic emollients correlate well, good spreadabilities can be concluded from the viscosities determined.
# [11] = test system: Staphylococcus epidermidis (ATCC 12228); assay: Antimicrobial action, microbe count after incubation in CASO broth; assay type: cell-based; conditions: sample 1.0% in water/ethanol (12% of ethanol), 500 µl sample + 500 µl suspension; 35° C., 24 h or 48 h; initial count 5.8 × 10^4
# Experimental: as §1, §2, §3
# [12] = 0.25% in H2O, count t0 1.3 × 10^6
# [13] = 0.25% in H2O, count t0 3.2 × 10^5
structure (smiles),measurement,setting,value
OCCOC1CCCCC1 [Substance I-1],Microbe count t24 h,[1]; [12],4.3 × 10^6
same,Δlog,[1]; 0.25% in H2O,+0.53
same,Microbe count t24 h,"[1]; 1.0% in H2O(12% of ethanol), count t0 6.0 × 10^3",0
same,Δlog,[1]; 1.0% in H2O(12% of ethanol),−3.78
same,Microbe count t24 h,[2]; count t0 1.0 × 10^6,2.0 × 10^6
same,Δlog,[2]; t24 h vs t0,+0.30
same,Microbe count t24 h,"[3]; 1.0% in H2O, count t0 7.8 × 10^5",7.0 × 10^5
same,Δlog,[3]; 1.0% in H2O,−0.05
same,Microbe count t24 h,"[4]; 0.5% in H2O, count t0 1.0 × 10^6",9.0 × 10^3
same,Δlog,[4]; 0.5% in H2O,−2.05
same,Microbe count t24 h,"[4]; 0.8% in H2O(12% of ethanol), count t0 1.3 × 10^4",0
same,Δlog,[4]; 0.8% in H2O(12% of ethanol),−4.11
same,Microbe count t24 h,"[5]; 0.5% in H2O, count t0 2.9 × 10^5",1.7 × 10^4
same,Δlog,[5]; 0.5% in H2O,−1.23
same,Microbe count t24 h,"[5]; 1.0% in H2O, count t0 2.5 × 10^5",0
same,Δlog,[5]; 1.0% in H2O,−5.40
same,Microbe count t24 h,[6]; count t0 7.2 × 10^4,2.5 × 10^2
same,Δlog,[6]; t24 h vs t0,−2.46
same,Microbe count t24 h,[7]; [13],8.0 × 10^8
same,Δlog,[7]; 0.25% in H2O,+3.40
same,Microbe count t24 h,"[7]; 0.8% in H2O(12% of ethanol), count t0 6.3 × 10^4",0
same,Δlog,[7]; 0.8% in H2O(12% of ethanol),−4.80
same,Δlog,[8]; 1.0% in H2O(12% of ethanol),−0.90
same,Microbe count t24 h,"[8]; 1.0% in H2O(12% of ethanol), count t0 8.0 × 10^2",1.0 × 10^2
same,Δlog,[9]; count after 72 h vs t0,−2.60
same,Microbe count t24 h,"[9]; count t0 4.0 × 10^2, count after 72 h",0
same,Density,[10]; 25° C.,0.9897 g/mL
same,Kinematic viscosity,[10]; Ubbelohde viscometer,15.2 mm^2/s
same,Dynamic viscosity,[10]; kinematic viscosity × density,15.0 mPas
COC1CCC(O)CC1 (stereo not shown) [Substance I-2],Final microbe count,[11],4.0 × 10^4 CFU/ml
"OCCOC1CCC(OCCO)CC1 (stereo not shown) [Substance I-3, 2-[4-(2-hydroxyethoxy)cyclohexyloxy]ethanol]",Microbe count t24 h,"[3]; 0.5% in H2O, count t0 3.4 × 10^5",4.0 × 10^7
same,Δlog,[3]; 0.5% in H2O,+2.07
same,Microbe count t24 h,"[8]; 0.5% in H2O, count t0 2.8 × 10^4",1.6 × 10^4
same,Δlog,"[8]; 0.5% in H2O, t0 2.8 × 10^4",−0.24
same,Δlog,[8]; 1.0% in H2O,−1.30
same,Microbe count t24 h,"[8]; 1.0% in H2O, count t0 2.8 × 10^4",1.4 × 10^3
CC(O)COC1CCCCC1 (stereo not shown) [Substance I-9],Microbe count t24 h,[1]; [12],1.4 × 10^6
same,Δlog,[1]; 0.25% in H2O,+0.04
same,Microbe count t24 h,[7]; [13],4.30 × 10^8
same,Δlog,[7]; 0.25% in H2O,+3.13
